Laboratory results: PubChem BioAssay AID2060613 (Molecular Pharmacology Branch, DTP, NCI, 2025)
Values joined by “and” are separate entries in the source; they are usually repeats but may differ in a detail not shown here. Identical values can stand only once. Values belong to the molecule of their own block, whether it stands above or below them.

Test system: 233499-124-R-J3-PDC complex spheroid viability
Assay: Anticancer human tumor 233499-124-R-J3-PDC patient-derived colon adenocarcinoma cell line growth inhibition [CLK]
Settings: for viability, T/C: stronger effect = lower value
Description: A high-throughput screen of multi-cell type tumor spheroids was designed to identify active combinations of […] and targeted small molecules. Complex spheroids include a stromal component modeled by human endothelial cells (HUVEC) and fibroblasts modeled by human mesenchymal stem cells (MSCs). The concentration ranges selected for each drug and investigational agent were based upon clinically achievable concentrations if the clinical Cmax of the agent was known.
Compounds. The drugs and investigational agents: cirtuvivint (SM08502; NSC835563), CC-671 (NSC850746), vemurafenib (NSC761431), tapotoclax (NSC804041), sotorasib (NSC818433), adagrasib (NSC831453), MRTX-1133 (NSC836407), BAY2416964 (NSC825713), copanlisib (NSC816437), inavolisib (NSC800729), abemaciclib (NSC768073), osimertinib (NSC779217), entinostat (NSC756642), eltanexor (KPT-8602, NSC794443), venetoclax (NSC766270), ceralasertib (NSC777638), bortezomib (NSC756655), olaparib (NSC753686), talazoparib (NSC767125), alisertib (NSC759677), peposertib (NSC802822), gemcitabine (NSC613327), 5-fluorouracil (NSC19893), SN-38 (NSC673596), oxaliplatin (NSC266046), paclitaxel (NSC125973), and doxorubicin (NSC123127), were obtained from the National Cancer Institute (NCI) Developmental Therapeutics Program Chemical Repository. The FDA-approved anticancer drug set is available from the Developmental Therapeutics Program at https://dtp.cancer.gov/organization/dscb/obtaining/available plates.htm. […] The stock solutions were prepared in dimethyl sulfoxide (DMSO, Sigma-Aldrich, St. Louis, MO, cat. D2650), except for the platinum complexes which were prepared in saline (Quality Biological, Gaithersburg, MD, cat. 114-055-101), at 800-fold the tested concentration and stored at -70 degrees C prior to their use. All drugs and investigational agents were tested over a range starting from a high concentration at or near the clinical Cmax and decreasing in half-log increments. If the clinical Cmax for an agent had not been determined, the highest concentration tested was 10 microM.
Cell Culture. All cells were maintained in an incubator at 37 degrees C and 5% CO2 with 95% humidity. The PDC lines were cultured according to standard operating procedures established by the NCI PDMR. Briefly, all PDCs were thawed and cultured in Matrigel-coated flasks prepared with a working solution of 1X Ham's F-12 nutrient mix, without supplementation (Invitrogen, Waltham, MA, cat. 11765054), 100 U/mL penicillin-streptomycin (Invitrogen, cat. 15140122), and 2.5% Matrigel (Corning Inc., Corning, NY, cat. 354248) for the first three passages. The 947758-054-R-J2-PDC line was cultured in 6B/Colon 1A media, which includes advanced DMEM/F-12 (Thermo Fisher Scientific, cat. 12634028), 10 mM HEPES (Thermo Fisher Scientific, cat. 15630080), 1X GlutaMAX supplement (Thermo Fisher Scientific, cat. 35050061), 0.1 mg/mL primocin (InvivoGen, cat. ant-pm-2), 10% defined fetal bovine serum, heat inactivated (HyClone Laboratories Inc., cat. SH30070.03HI), 1.25 mM N-Acetyl-L-cysteine (Sigma-Aldrich, cat. A9165), 10 mM nicotinamide (Sigma-Aldrich, cat. N0636), 1X B-27 supplement (Thermo Fisher Scientific, cat. 17504044), 1X N-2 supplement (Thermo Fisher Scientific, cat. 17502048), and 10 microM Y-27632 dihydrochloride (Tocris Bioscience, cat. 1254). The 876862-298-R-J1-PDC was cultured in 6E media, which includes all 6B/Colon 1A media components plus 50% L-WRN conditioned media (ATCC, cat. CRL-3276), 50 ng/mL recombinant human EGF recombinant protein (hEGF; Thermo Fisher Scientific, cat. PHG0311), 10 ng/mL recombinant human fibroblast growth factor 10 (hGFG-10; PeproTech, cat. 100-26), 1 ng/mL recombinant human fibroblast growth factor 2 (hFGF-2; PeproTech, cat. 100-18B), and 1 µM prostaglandin E2 (PGE2; Tocris, cat. 2296). The 227483-062-R1-J1-PDC line was cultured in Panc media, containing all 6E components except hFGF-2, with the addition of 500 nM SB-431542 (Selleckchem, cat. S1067) and 10 nM gastrin (Tocris, cat. 3006). […]

[1] = curve of first compound, second compound 0.0316 µM
[2] = curve of first compound, second compound 0.1 µM
[3] = curve of first compound, second compound 0.316 µM
[4] = curve of first compound, second compound 1 µM
[5] = curve of first compound, second compound 3.16 µM
[6] = curve of first compound, second compound 10 µM
[7] = second compound 0.0316 µM, first compound 0.0316 µM
[8] = second compound 0.0316 µM, first compound 0.1 µM
[9] = second compound 0.0316 µM, first compound 0.316 µM
[10] = second compound 0.0316 µM, first compound 1 µM
[11] = second compound 0.0316 µM, first compound 3.16 µM
[12] = second compound 0.0316 µM, first compound 10 µM
[13] = second compound 0.1 µM, first compound 0.0316 µM
[14] = second compound 0.1 µM, first compound 0.1 µM
[15] = second compound 0.1 µM, first compound 0.316 µM
[16] = second compound 0.1 µM, first compound 1 µM
[17] = second compound 0.1 µM, first compound 3.16 µM
[18] = second compound 0.1 µM, first compound 10 µM
[19] = second compound 0.316 µM, first compound 0.0316 µM
[20] = second compound 0.316 µM, first compound 0.1 µM
[21] = second compound 0.316 µM, first compound 0.316 µM
[22] = second compound 0.316 µM, first compound 1 µM
[23] = second compound 0.316 µM, first compound 3.16 µM
[24] = second compound 0.316 µM, first compound 10 µM
[25] = second compound 1 µM, first compound 0.0316 µM
[26] = second compound 1 µM, first compound 0.1 µM
[27] = second compound 1 µM, first compound 0.316 µM
[28] = second compound 1 µM, first compound 1 µM
[29] = second compound 1 µM, first compound 3.16 µM
[30] = second compound 1 µM, first compound 10 µM
[31] = second compound 3.16 µM, first compound 0.0316 µM
[32] = second compound 3.16 µM, first compound 0.1 µM
[33] = second compound 3.16 µM, first compound 0.316 µM
[34] = second compound 3.16 µM, first compound 1 µM
[35] = second compound 3.16 µM, first compound 3.16 µM
[36] = second compound 3.16 µM, first compound 10 µM
[37] = second compound 10 µM, first compound 0.0316 µM
[38] = second compound 10 µM, first compound 0.1 µM
[39] = second compound 10 µM, first compound 0.316 µM
[40] = second compound 10 µM, first compound 1 µM
[41] = second compound 10 µM, first compound 3.16 µM
[42] = second compound 10 µM, first compound 10 µM
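Further: spheroids exposed to the drug combinations for seven days.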
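Wherever viability, T/C is given: percent viability relative to DMSO vehicle control wells taken as 100%.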

- IC50 (curve of compound): 59.1 nM and 60.7 nM
SMILES: CC(=O)O[C@H]1C(=O)[C@@]2(C)[C@H]([C@H](OC(=O)c3ccccc3)[C@]3(O)C[C@H](OC(=O)[C@H](O)[C@@H](NC(=O)c4ccccc4)c4ccccc4)C(C)=C1C3(C)C)[C@]1(OC(C)=O)CO[C@@H]1C[C@@H]2O
- viability, T/C (compound 0.0316 µM): 63.2% and 74.1%
- viability, T/C (compound 0.1 µM): 38.9% and 31.5%
- viability, T/C (compound 0.316 µM): 19.9% and 8.71%
- viability, T/C (compound 1 µM): 17.4% and 11%
- viability, T/C (compound 3.16 µM): 20.4% and 9.09%
- viability, T/C (compound 10 µM): 24.4% and 16.4%

SMILES: CCCS(=O)(=O)Nc1ccc(F)c(C(=O)c2c[nH]c3ncc(-c4ccc(Cl)cc4)cc23)c1F + CN1CCN(c2cc(C(=O)Nc3cc4cc(-c5cnn(C)c5)ccc4cn3)ccn2)CC1
- IC50 [1]: > 10000 nM
- IC50 [2]: > 10000 nM
- IC50 [3]: 8040 nM
- IC50 [4]: < 31.6 nM
- IC50 [5]: < 31.6 nM
- IC50 [6]: < 31.6 nM
- viability, T/C [7]: 103%
- viability, T/C [8]: 98.2%
- viability, T/C [9]: 101%
- viability, T/C [10]: 99.8%
- viability, T/C [11]: 97.2%
- viability, T/C [12]: 92.4%
- viability, T/C [13]: 98.5%
- viability, T/C [14]: 103%
- viability, T/C [15]: 103%
- viability, T/C [16]: 106%
- viability, T/C [17]: 109%
- viability, T/C [18]: 92.2%
- viability, T/C [19]: 96.7%
- viability, T/C [20]: 96.9%
- viability, T/C [21]: 91.8%
- viability, T/C [22]: 89.3%
- viability, T/C [23]: 99.9%
- viability, T/C [24]: 39.5%
- viability, T/C [25]: 1.29%
- viability, T/C [26]: 4.3%
- viability, T/C [27]: 5.03%
- viability, T/C [28]: 0.45%
- viability, T/C [29]: 0.8%
- viability, T/C [30]: 1.4%
- viability, T/C [31]: 0.42%
- viability, T/C [32]: 0.62%
- viability, T/C [33]: 1.12%
- viability, T/C [34]: 0.53%
- viability, T/C [35]: 0.63%
- viability, T/C [36]: 0.92%
- viability, T/C [37]: 0.24%
- viability, T/C [38]: 0.32%
- viability, T/C [39]: 1.24%
- viability, T/C [40]: 0.33%
- viability, T/C [41]: 0.36%
- viability, T/C [42]: 0.85%

SMILES: CC(CO)NC(=O)c1cc(-c2ccc(Cl)cc2)nn(-c2cnn(C)c2)c1=O (stereo not drawn) + CN1CCN(c2cc(C(=O)Nc3cc4cc(-c5cnn(C)c5)ccc4cn3)ccn2)CC1
- IC50 [1]: > 10000 nM
- IC50 [2]: > 10000 nM
- IC50 [3]: > 10000 nM
- IC50 [4]: < 31.6 nM
- IC50 [5]: < 31.6 nM
- IC50 [6]: < 31.6 nM
- viability, T/C [7]: 97.5%
- viability, T/C [8]: 100%
- viability, T/C [9]: 98.1%
- viability, T/C [10]: 92%
- viability, T/C [11]: 98.5%
- viability, T/C [12]: 66.4%
- viability, T/C [13]: 86.3%
- viability, T/C [14]: 112%
- viability, T/C [15]: 103%
- viability, T/C [16]: 94.2%
- viability, T/C [17]: 94.3%
- viability, T/C [18]: 80%
- viability, T/C [19]: 93.3%
- viability, T/C [20]: 94.4%
- viability, T/C [21]: 92.2%
- viability, T/C [22]: 94.8%
- viability, T/C [23]: 103%
- viability, T/C [24]: 68.9%
- viability, T/C [25]: 1.24%
- viability, T/C [26]: 1.01%
- viability, T/C [27]: 6.77%
- viability, T/C [28]: 3.75%
- viability, T/C [29]: 6.32%
- viability, T/C [30]: 0.66%
- viability, T/C [31]: 0.63%
- viability, T/C [32]: 0.7%
- viability, T/C [33]: 0.8%
- viability, T/C [34]: 0.74%
- viability, T/C [35]: 0.73%
- viability, T/C [36]: 0.73%
- viability, T/C [37]: 0.53%
- viability, T/C [38]: 0.48%
- viability, T/C [39]: 1.5%
- viability, T/C [40]: 0.55%
- viability, T/C [41]: 0.5%
- viability, T/C [42]: 0.6%

- IC50 [1]: 71.3 nM
- IC50 [2]: 125 nM
- IC50 [3]: 121 nM
- IC50 [4]: 42.4 nM
- IC50 [5]: 39.9 nM
- IC50 [6]: 44.1 nM
SMILES: Nc1ccn(C2OC(CO)C(O)C2(F)F)c(=O)n1 (stereo not drawn) + CNC(=O)c1ccc(Nc2nc(OC3CCCC3)c3c(-c4ccc5nc(C)oc5c4)c[nH]c3n2)c(OC)c1
- viability, T/C [7]: 80.5%
- viability, T/C [8]: 37.3%
- viability, T/C [9]: 11.7%
- viability, T/C [10]: 13.9%
- viability, T/C [11]: 22.5%
- viability, T/C [12]: 13.7%
- viability, T/C [13]: 56.8%
- viability, T/C [14]: 57.8%
- viability, T/C [15]: 18.3%
- viability, T/C [16]: 22%
- viability, T/C [17]: 18.2%
- viability, T/C [18]: 18.3%
- viability, T/C [19]: 65.2%
- viability, T/C [20]: 56.8%
- viability, T/C [21]: 15.7%
- viability, T/C [22]: 8.6%
- viability, T/C [23]: 14.8%
- viability, T/C [24]: 14.3%
- viability, T/C [25]: 63%
- viability, T/C [26]: 12%
- viability, T/C [27]: 13.7%
- viability, T/C [28]: 9.36%
- viability, T/C [29]: 10.2%
- viability, T/C [30]: 8.84%
- viability, T/C [31]: 53.5%
- viability, T/C [32]: 36%
- viability, T/C [33]: 11.4%
- viability, T/C [34]: 5.38%
- viability, T/C [35]: 6.79%
- viability, T/C [36]: 5.11%
- viability, T/C [37]: 53.4%
- viability, T/C [38]: 41.7%
- viability, T/C [39]: 11.5%
- viability, T/C [40]: 6.13%
- viability, T/C [41]: 5.83%
- viability, T/C [42]: 4.84%
